Experimental data as given in patent publication US6515025B2, “Use of ethynyl alanine amino diol compounds to inhibit enzymatic conversion of angiotensinogen to angiotensin I” (Pharmacia Corporation, priority 1991, dated 2003).
Several values for one entry are separate records, joined by “and”; a condition that tells them apart may be missing. Equal entries are not always repeated. Where two headings read alike, the source gives them in different places.

Tests used:
human renin = biological target: T1, human renin (Homo sapiens, UniProt P00797); assay: Human renin inhibition in vitro; type: biochemical
T1 construct: purchased National Institute for Biological Standards, London
T1 sequence (P00797 67-406): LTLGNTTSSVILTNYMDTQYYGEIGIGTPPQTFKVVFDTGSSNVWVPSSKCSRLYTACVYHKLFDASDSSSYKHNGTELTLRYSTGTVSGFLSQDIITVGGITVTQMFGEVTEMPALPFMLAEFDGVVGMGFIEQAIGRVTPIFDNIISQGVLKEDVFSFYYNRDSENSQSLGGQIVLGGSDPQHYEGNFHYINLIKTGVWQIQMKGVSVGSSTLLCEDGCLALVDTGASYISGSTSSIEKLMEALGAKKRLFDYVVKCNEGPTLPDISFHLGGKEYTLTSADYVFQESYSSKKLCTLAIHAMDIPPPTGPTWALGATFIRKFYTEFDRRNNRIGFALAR
Description: Compounds of Formula I were evaluated as inhibitors of human renin in an in vitro assay, as follows: This human renin inhibition test has been previously described in detail [Papaioannou et al., Clinical and Experimental Hypertension, A7(9), 1243-1257 (1985)]. Human renin was obtained from the National Institute for Biological Standards, London. An incubation mixture was prepared containing the following components: in a total volume of 0.25 mL: 100 mM Tris-acetate buffer at pH 7.4, 25×10^−6 Goldblatt units of renin, 0.05 mL of plasma from human volunteers taking oral contraceptives, 6.0 mM Na-EDTA, 2.4 mM phenylmethyl sulfonyl fluoride, 1.5 mM 8-hydroxyquinoline, 0.4 mg/mL bovine serum albumin (BSA), and 0.024 mg/mL neomycin sulfate. This mixture was incubated for two hours at 37° C. in the presence or absence of renin inhibitors. The produced angiotensin I was determined by radioimmunoassay (New England Nuclear kit). Test compounds to be assayed were dissolved in DMSO and diluted with 100 mM Tris-acetate buffer at pH 7.4 containing 0.5% BSA to the appropriate concentration. The final concentration of organic solvent in the reaction mixture was less than 1%. Control incubations at 37° C. were used to correct for effects of organic solvent on renin activity.

[1] = system: Plasma Renin Activity (PRA); assay: Marmoset plasma renin activity (PRA) reduction on oral administration; type: in vivo, Marmoset monkeys (Callithrix jacchus); settings: IG; for inhibition at 0.1 mg/kg / inhibition at 1 mg/kg: Primates, po
Description: The oral activity of renin inhibitor compounds was determined in vivo in Marmoset monkeys using the following procedure. Common Marmoset monkeys (Callithrix jacchus, Charles River, both sexes, body weight 300-400 g) were placed on a modified high-protein low-sodium diet (Purina, St. Louis, Mo.) for 1 week. About 24 hours prior to the administration of test compound, Lasix (5 mg/kg, im) was given. On the day of the test, the animal was anesthetized with isoflurane, body weight recorded, and a baseline blood sample taken. Then, test compound was given intragastrically and blood samples were taken in K-EDTA for plasma renin activity at appropriate time intervals. The PRA was determined by using the protocol outlined below. Results are expressed in terms of PRA at various time intervals both before and after compound administrations (“Pre” means pretreatment levels before compound administrations). Also included is percent inhibition (% INH from pretreatment levels).
I. Angiotensin I Generation
25 ml of the above reaction mixtures, in duplicate, were incubated at 37° C. or 0° C. for 2 hours.
II. Determination of Angiotensin I Concentrations
Angiotensin I (AI) concentrations were determined by radioimmunoassays with a commercial kit from NEN Co.
III. Calculation of Plasma Renin Activity
PRA (ng AI/ml/hr)=(AI at 37°−AI at 0°)/2 hr.

[2] = 0.1 MPK, 60 min, individual monkeys
[3] = 0.1 MPK, 60 min from dosing, individual monkeys
[4] = 0.1 MPK, 120 min, individual monkeys
[5] = 0.1 MPK, 120 min from dosing, individual monkeys
[6] = 0.1 MPK, 240 min, individual monkeys
[7] = 0.1 MPK, 240 min from dosing, individual monkeys
[8] = 0.1 MPK, Pre (pretreatment level), individual monkeys
[9] = 0.1 MPK, 60 min, individual monkeys, read-out: % INH (from pretreatment PRA)
[10] = 0.1 MPK, 240 min, individual monkeys, read-out: % INH (from pretreatment PRA)
[11] = 1 h, 0.1 MPK, 60 min, mean of monkeys A-C, read-out: MEAN % INH
[12] = 2 h, 0.1 MPK, 120 min, mean of monkeys A-C, read-out: MEAN % INH
[13] = 4 h, 0.1 MPK, 240 min, mean of monkeys A-C, read-out: MEAN % INH

| IC50 (human renin) | Compound | % INH (from pretreatment PRA) [1, 2] | PRA [1, 3] | % INH (from pretreatment PRA) [1, 4] | PRA [1, 5] | % INH (from pretreatment PRA) [1, 6] | PRA [1, 7] | PRA [1, 8] | inhibition at 0.1 mg/kg [1, 9] | inhibition at 0.1 mg/kg [1, 10] | inhibition at 0.1 mg/kg [1, 11] | inhibition at 0.1 mg/kg [1, 12] | inhibition at 0.1 mg/kg [1, 13] | further results |
| --- | --- | --- | --- | --- | --- | --- | --- | --- | --- | --- | --- | --- | --- | --- |
| 4 nM | C#CC[C@H](NC(=O)C(Cc1ccccc1)OC(=O)N(C)CCN(C)C)C(=O)NC(CC1CCCCC1)[C@@H](O)C(O)CC(C)C (relative stereo) [Example 2, [1R*-[[[1R*-[[[1S,1R*-(Cyclohexylmethyl)-2S*,3R*-dihydroxy-5-methylhexyl]amino]carbonyl]-3-butynyl]amino]carbonyl]-2-phenylethyl)[2-(dimethylamino)ethyl]methylcarbamate] | 71.5% and 81.2% | 3.9 ngAI/ml/hr and 33.9 ngAI/ml/hr and 12.7 ngAI/ml/hr | 86.4% and 64.8% and 78.7% | 5.7 ngAI/ml/hr and 41.8 ngAI/ml/hr and 14.4 ngAI/ml/hr | 57.2% and 58.2% | 28.5 ngAI/ml/hr and 18.1 ngAI/ml/hr and 49.7 ngAI/ml/hr | 42.2 ngAI/ml/hr and 118.8 ngAI/ml/hr and 67.5 ngAI/ml/hr | 90.7% | 57.7% | 81.1 ± 6% | 76.6 ± 6% | 57.7% | – |
| 3 nM | C#CCC(NC(=O)C(Cc1ccccc1)OC(=O)N(C)CCN(C)C)C(=O)NC(CC1CCCCC1)[C@@H](O)C(O)CC(C)C (stereo in doubt) [Example 3, [1R*-[[[1-[[[1S,1R*-(Cyclohexylmethyl)-2S*,3R*-dihydroxy-5-methylhexyl]amino]carbonyl]-3-butynyl]amino]carbonyl]-2-phenylethyl[]2-(dimethylamino)ethyl]methylcarbamate] | 60.7% and 66.7% | 42.1 ngAI/ml/hr and 29.8 ngAI/ml/hr and 27.8 ngAI/ml/hr | 46.9% and 60.3% | 47.1 ngAI/ml/hr and 40.3 ngAI/ml/hr and 33.2 ngAI/ml/hr | 63.9% and 48% | 36.1 ngAI/ml/hr and 38.1 ngAI/ml/hr and 39.5 ngAI/ml/hr | 105.5 ngAI/ml/hr and 76 ngAI/ml/hr and 83.7 ngAI/ml/hr | 60.1% | 56.8% | 62.5 ± 2% | 54.2 ± 4% | 56.2 ± 5% | PRA ([1]; 1.0 MPK, 60 min from dosing, individual monkeys): 0 ngAI/ml/hr; PRA ([1]; 1.0 MPK, 120 min from dosing, individual monkeys): 0 ngAI/ml/hr; PRA ([1]; 1.0 MPK, 240 min from dosing, individual monkeys): 0 ngAI/ml/hr; PRA ([1]; 1.0 MPK, Pre (pretreatment level), individual monkeys): 70.5 ngAI/ml/hr and 185.4 ngAI/ml/hr and 76.1 ngAI/ml/hr; inhibition at 0.1 mg/kg ([1]; 0.1 MPK, 120 min, individual monkeys, read-out: % INH (from pretreatment PRA)): 55.3%; inhibition at 1 mg/kg ([1]; 1.0 MPK, 60 min, individual monkeys, read-out: % INH (from pretreatment PRA)): 100%; inhibition at 1 mg/kg ([1]; 1.0 MPK, 120 min, individual monkeys, read-out: % INH (from pretreatment PRA)): 100%; inhibition at 1 mg/kg ([1]; 1.0 MPK, 240 min, individual monkeys, read-out: % INH (from pretreatment PRA)): 100%; inhibition at 1 mg/kg ([1]; 1.0 MPK, printed on the Pre line, read-out: % INH): 100%; inhibition at 1 mg/kg ([1]; 1 h, 1.0 MPK, 60 min, mean of monkeys, read-out: MEAN % INH): 100%; inhibition at 1 mg/kg ([1]; 2 h, 1.0 MPK, 120 min, mean of monkeys, read-out: MEAN % INH): 100%; inhibition at 1 mg/kg ([1]; 4 h, 1.0 MPK, 240 min, mean of monkeys, read-out: MEAN % INH): 100% |
| 1 nM | C#CC[C@H](NC(=O)[C@@H](CC(=O)N(C)CCN(CC)CC)Cc1ccccc1)C(=O)N[C@@H](CC1CCCCC1)[C@@H](O)[C@@H](O)CC(C)C [Example 4] | – | – | – | – | – | – | – | – | – | – | – | – | – |
